How the values were obtained:
[1] = Solvent screening: solubility of DCI-NH2 slurried in acetonitrile plus various solvents; assay type: physicochemical; settings: for Solubility, +100 uL solvent / Solubility, +200 uL water: +100 uL solvent
Procedure: Samples of DCI-NH2 (40 mg) were slurried in acetonitrile (0.25 ml) plus various solvents (0.05 ml).

[2] = as above; assay type: physicochemical; settings: 40 mg in MeCN:water = 0.5:0.2 mL
[3] = 40 mg in acetonitrile 0.25 ml + NMP 0.05 ml
[4] = 40 mg in acetonitrile 0.25 ml + Nitromethane 0.05 ml
[5] = 40 mg in acetonitrile 0.25 ml + Propylene carbonate 0.05 ml
[6] = 40 mg in acetonitrile 0.25 ml + Sulfolane 0.05 ml

Solubility ([1]; 40 mg in acetonitrile 0.25 ml + Diglyme 0.05 ml): soluble
Solubility ([1]; 40 mg in acetonitrile 0.25 ml + Dmso 0.05 ml): soluble
Solubility [1, 3]: partial
Solubility, +100 uL solvent [1, 3]: soluble
Solubility [1, 4]: No
Solubility, +100 uL solvent [1, 4]: No
Solubility, +200 uL water [1, 4]: No
Solubility [1, 5]: No
Solubility, +100 uL solvent [1, 5]: No
Solubility, +200 uL water [1, 5]: soluble
Solubility [1, 6]: No
Solubility, +100 uL solvent [1, 6]: No
Solubility, +200 uL water [1, 6]: soluble
Solubility [2]: soluble
SMILES: N#Cc1nc(N)[nH]c1C#N [DCI-NH2, 2-amino-1H-imidazole-4,5-dicarbonitrile]
